Laboratory results reported in patent US20240002424A1, “HEXOSAMINE COMPOUNDS AND METHODS THEREOF” (National Institute of Immunology, priority 2021, published 2024).

Test system: HL-60 cells
Experiment: Static cell adhesion to mouse E-selectin-Fc (mCD62E) coated surfaces
Format: cell-based, human
Settings: HL-60 pre-incubated 50 μM, 48 h; adhesion 60 min
Experimental: Effect of ManNAc analogues on cell adhesion to E-selectin and L-selectin coated surfaces: This assay was performed in 96-well polystyrene plates under sterile conditions. The plates were prepared freshly on the day of adhesion experiments. Wells were first coated with protein-G (200 ng in 50 μL PBS per well) for 1.0 h at room temperature (RT) followed by PBS washes (2×0.1 mL). Then either recombinant mouse E-selectin-Fc chimera or L-selectin-Fc chimera (20 ng in 50 μL PBS per well) was added to the wells and plate was left undisturbed for 1.0 h at RT. Wells were aspirated and washed with PBS (2×0.1 mL) followed by blocking with 1.0% (w/v) BSA in 50 μL PBS per well for 1.0 h at RT. After blocking, the wells were washed with PBS (3×0.1 mL).
HL-60 cells (3.0×10^5 cells per mL; 2.0 mL in six well plates) were incubated with 50 μM ManNAc analogues, harvested at 48 h, washed once with serum free RPMI medium (0.5 mL), and resuspended in serum free RPMI 1640 media containing 1.5 mM CaCl2) (4.0×10^5 cells/mL in 1.0 mL). The single cell suspension was added to each well (2.0×10^4 cells in 50 μL media per well) and allowed to adhere for 1.0 h at 37° C. in a CO2 incubator. […] Images were captured at 10× magnification using Olympus IX53 fluorescence microscope. […] The images were analyzed manually and the total number of adherent cells per well for each condition were plotted.

Q: With `CC(=O)OC[C@H]1OC(OC(C)=O)[C@@H](NC(=O)C2CCC2)[C@@H](OC(C)=O)[C@@H]1OC(C)=O` (stereo partly drawn) [Compound 1b, (3S,4R,5S,6R)-6-(acetoxymethyl)-3-(cyclobutanecarboxamido)tetrahydro-2H-pyran-2,4,5-triyl triacetate] as the compound, how does the “increase in the numbers of adhered cells on mCD62E coated surface” value read?
A: about 40%
